Target: MAPKAPK2 (Homo sapiens, UniProt P49137)
Experiment: MK2 Enzymatic Assay
Assay type: biochemical
Settings: 0.5 nM MAPKAPK2, 3 μM ATP, 2 μM Ser/Thr4 peptide, 23° C., values given as concentration bins
Procedure, shortened: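 Percent phosphorylation was derived from coumarin and fluorescein emissions relative to 0% and 100% phospho-peptide controls, read after a 120 min development step. Reactions used 2× stocks of 1 nM kinase, 4 μM peptide and 6 μM ATP; enzyme and peptide sat 20 min before a 120 min ATP reaction.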

MAPKAPK2, sequence (P49137 whole entry, species assumed): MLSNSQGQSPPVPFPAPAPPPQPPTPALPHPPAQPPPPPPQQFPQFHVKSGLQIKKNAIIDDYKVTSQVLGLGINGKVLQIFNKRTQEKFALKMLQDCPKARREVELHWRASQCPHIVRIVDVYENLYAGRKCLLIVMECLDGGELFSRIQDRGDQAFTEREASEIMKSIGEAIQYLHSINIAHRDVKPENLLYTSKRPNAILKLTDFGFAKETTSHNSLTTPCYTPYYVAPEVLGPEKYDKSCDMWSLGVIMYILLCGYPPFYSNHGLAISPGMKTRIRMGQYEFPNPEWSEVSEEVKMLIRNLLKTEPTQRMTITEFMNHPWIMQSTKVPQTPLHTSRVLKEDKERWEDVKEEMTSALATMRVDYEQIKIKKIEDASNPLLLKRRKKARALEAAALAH

**Q.** `CNCC1CN(c2ccc3c(c2)Cn2cc(-c4ccc(C#N)cc4)cc2-c2nncn2-3)C1` [Compound 11, 4-(7-(3-((methylamino)methyl)azetidin-1-yl)-9H-benzo[e]pyrrolo[1,2-a][1,2,4]triazolo[3,4-c][1,4]diazepin-12-yl)benzonitrile] was tested. Which IC50 did it give?
**A.** 50 to 100 nM

**Q.** How did the IC50 turn out when `Fc1ccc(-c2cc3n(c2)Cc2cc(N4CCC5(CNC5)C4)ccc2-n2ccnc2-3)cc1` [Compound 376, 12-(4-fluorophenyl)-7-(2,6-diazaspiro[3.4]octan-6-yl)-9H-benzo[e]imidazo[2,1-c]pyrrolo[1,2-a][1,4]diazepine] was run?
**A.** < 50 nM

**Q.** Which IC50 does the source give for `CNC[C@H]1CN(c2ccc3c(c2)Cn2cc(-c4ccc(F)cc4)cc2-c2nccn2-3)C[C@H]1O` [Compound 482, (3S,4S)-1-(12-(4-fluorophenyl)-9H-benzo[e]imidazo[2,1-c]pyrrolo[1,2-a][1,4]diazepin-7-yl)-4-((methylamino)methyl)pyrrolidin-3-ol] here?
**A.** < 50 nM

**Q.** `C[C@H](CO)NC[C@H]1CCN(c2ccc3c(c2)Cn2cc(-c4ccc(F)cc4)cc2-c2nccn2-3)C1` [Compound 355, (R)-2-((((R)-1-(12-(4-fluorophenyl)-9H-benzo[e]imidazo[2,1-c]pyrrolo[1,2-a][1,4]diazepin-7-yl)pyrrolidin-3-yl)methyl)amino)propan-1-ol] was tested. Which IC50 did it give?
**A.** < 50 nM

**Q.** Which IC50 does the source give for `CNC[C@@H]1CCN(c2ccc3c(c2)Cn2cc(-c4ccc(F)cc4)cc2-c2nccn2-3)C1` [Compound 347, (S)-1-(1-(12-(4-fluorophenyl)-9H-benzo[e]imidazo[2,1-c]pyrrolo[1,2-a][1,4]diazepin-7-yl)pyrrolidin-3-yl)-N-methylmethanamine] here?
**A.** < 50 nM

**Q.** `Fc1ccc(-c2cc3n(c2)Cc2cc(N4CCC5(CC4)CNC5)ccc2-n2nnnc2-3)cc1` [Compound 402, 12-(4-fluorophenyl)-7-(2,7-diazaspiro[3.5]nonan-7-yl)-9H-benzo[e]pyrrolo[1,2-a]tetrazolo[5,1-c][1,4]diazepine] was tested. Which IC50 did it give?
**A.** < 50 nM

**Q.** With `N[C@H]1CN(c2ccc3c(c2)Cn2cc(-c4ccc(F)cc4)cc2-c2nccn2-3)C[C@@H]1CO` (relative stereo) [Compound 489, ((trans)-4-amino-1-(12-(4-fluorophenyl)-9H-benzo[e]imidazo[2,1-c]pyrrolo[1,2-a][1,4]diazepin-7-yl)pyrrolidin-3-yl)methanol] as the molecule, how does the IC50 read?
**A.** < 50 nM

**Q.** For `CN(C)C[C@@H]1CN(c2ccc3c(c2)Cn2cc(-c4ccc(C#N)cc4)cc2-c2nccn2-3)C[C@@H]1O` [Compound 129, 4-(7-((3R,4R)-3-((dimethylamino)methyl)-4-hydroxypyrrolidin-1-yl)-9H-benzo[e]imidazo[2,1-c]pyrrolo[1,2-a][1,4]diazepin-12-yl)benzonitrile], which IC50 is on record?
**A.** < 50 nM

**Q.** How did the IC50 turn out when `Cc1nnc2n1-c1ccc(N3CC[C@H](N)C3)cc1Cn1cc(-c3ccc(C#N)cc3)cc1-2` [Compound 230, 4-(7-((S)-3-aminopyrrolidin-1-yl)-3-methyl-9H-benzo[e]pyrrolo[1,2-a][1,2,4]triazolo[3,4-c][1,4]diazepin-12-yl)benzonitrile] was run?
**A.** 50 to 100 nM

**Q.** For `C[C@@H](CO)NC[C@H]1CCN(c2ccc3c(n2)Cn2cc(-c4ccc(F)cc4)cc2-c2nccn2-3)C1` [Compound 437, (S)-2-((((R)-1-(12-(4-fluorophenyl)-9H-imidazo[2,1-c]pyrido[3,2-e]pyrrolo[1,2-a][1,4]diazepin-7-yl)pyrrolidin-3-yl)methyl)amino)propan-1-ol], which IC50 is on record?
**A.** < 50 nM

**Q.** With `NCCC1CCN(c2ccc3c(c2)Cn2cc(-c4ccc(F)cc4)cc2-c2nccn2-3)C1` (stereo not drawn) [Compound 486, 2-(1-(12-(4-fluorophenyl)-9H-benzo[e]imidazo[2,1-c]pyrrolo[1,2-a][1,4]diazepin-7-yl)pyrrolidin-3-yl)ethanamine] as the molecule, how does the IC50 read?
**A.** < 50 nM

**Q.** Which IC50 does the source give for `O[C@H]1CN(c2ccc3c(c2)Cn2cc(-c4ccc(F)cc4)cc2-c2nccn2-3)C[C@@H]1CN1CCCC1` [Compound 470, (3R,4S)-1-(12-(4-fluorophenyl)-9H-benzo[e]imidazo[2,1-c]pyrrolo[1,2-a][1,4]diazepin-7-yl)-4-(pyrrolidin-1-ylmethyl)pyrrolidin-3-ol] here?
**A.** < 50 nM

**Q.** With `C[C@@H]1c2cc(N3C[C@@H](CN(C)C)[C@H](O)C3)ccc2-n2ccnc2-c2cc(-c3ccc(F)cc3)cn21` [Compound 508, (3S,4R)-4-((dimethylamino)methyl)-1-((R)-12-(4-fluorophenyl)-9-methyl-9H-benzo[e]imidazo[2,1-c]pyrrolo[1,2-a][1,4]diazepin-7-yl)pyrrolidin-3-ol] as the molecule, how does the IC50 read?
**A.** < 50 nM

**Q.** For `CN1CC2(CCN(c3ccc4c(c3)Cn3cc(-c5ccc(F)cc5)cc3-c3nncn3-4)C2)C1` [Compound 332, 12-(4-fluorophenyl)-7-(2-methyl-2,6-diazaspiro[3.4]octan-6-yl)-9H-benzo[e]pyrrolo[1,2-a] [1,2,4]triazolo[3,4-c][1,4]diazepine], which IC50 is on record?
**A.** < 50 nM

**Q.** With `CNCC1CN(c2cc3c(cn2)-n2cnnc2-c2cc(-c4ccc(F)cc4)cn2C3)C1` [Compound 330, 1-(1-(12-(4-fluorophenyl)-9H-benzo[e]pyrrolo[1,2-a][1,2,4]triazolo[3,4-c][1,4]diazepin-7-yl)azetidin-3-yl)-N-methylmethanamine] as the molecule, how does the IC50 read?
**A.** 50 to 100 nM

**Q.** Which IC50 does the source give for `CN(C)[C@@H]1CCN(c2ccc3c(c2)Cn2cc(-c4ccc(F)cc4)cc2-c2ncnn2-3)C1` [Compound 426, (R)-1-(12-(4-fluorophenyl)-9H-benzo[e]pyrrolo[1,2-a][1,2,4]triazolo[5,1-c][1,4]diazepin-7-yl)-N,N-dimethylpyrrolidin-3-amine] here?
**A.** 50 to 100 nM

**Q.** For `CN(C)C[C@@H]1CCN(c2ccc3c(c2)Cn2cc(-c4ccc(F)cc4)cc2-c2nnnn2-3)C1` [Compound 393, (S)-1-(1-(12-(4-fluorophenyl)-9H-benzo[e]pyrrolo[1,2-a]tetrazolo[5,1-c][1,4]diazepin-7-yl)pyrrolidin-3-yl)-N,N-dimethylmethanamine], which IC50 is on record?
**A.** < 50 nM

**Q.** How did the IC50 turn out when `N#Cc1ccc(-c2cc3n(c2)Cc2cc(N4CCC5(CNC5)C4)ncc2-n2cnnc2-3)cc1` [Compound 318, 4-(7-(2,6-diazaspiro[3.4]octan-6-yl)-9H-pyrido[3,4-e]pyrrolo[1,2-a][1,2,4]triazolo[3,4-c][1,4]diazepin-12-yl)benzonitrile] was run?
**A.** 100 to 200 nM

**Q.** For `CN(C)[C@H]1CN(c2ccc3c(n2)Cn2cc(-c4ccc(F)cc4)cc2-c2nccn2-3)C[C@H]1O` [Compound 432, (3R,4S)-4-(dimethylamino)-1-(12-(4-fluorophenyl)-9H-imidazo[2,1-c]pyrido[3,2-e]pyrrolo[1,2-a][1,4]diazepin-7-yl)pyrrolidin-3-ol], which IC50 is on record?
**A.** 100 to 200 nM

**Q.** With `CNCC1CN(c2ccc3c(c2)Cn2cc(-c4ccc(F)cc4)cc2-c2nnnn2-3)C1` [Compound 386, 1-(1-(12-(4-fluorophenyl)-9H-benzo[e]pyrrolo[1,2-a]tetrazolo[5,1-c][1,4]diazepin-7-yl)azetidin-3-yl)-N-methylmethanamine] as the molecule, how does the IC50 read?
**A.** < 50 nM

**Q.** How did the IC50 turn out when `O=C(O)C1CCN(CC2CCN(c3ccc4c(c3)Cn3cc(-c5ccc(F)cc5)cc3-c3nccn3-4)C2)CC1` (stereo not drawn) [Compound 480, 1-((1-(12-(4-fluorophenyl)-9H-benzo[e]imidazo[2,1-c]pyrrolo[1,2-a][1,4]diazepin-7-yl)pyrrolidin-3-yl)methyl)piperidine-4-carboxylic acid] was run?
**A.** 50 to 100 nM

**Q.** For `CNC[C@@H]1CCN(c2ccc3c(c2)Cn2c(cc(-c4ccc(C#N)cc4)c2Cl)-c2nncn2-3)C1` [Compound 173, (S)-4-(11-chloro-7-(3-((methylamino)methyl)pyrrolidin-1-yl)-9H-benzo[e]pyrrolo[1,2-a][1,2,4]triazolo[3,4-c][1,4]diazepin-12-yl)benzonitrile], which IC50 is on record?
**A.** < 50 nM

**Q.** With `CN(C)[C@@H]1CCN(c2ccc3c(c2)Cn2cc(-c4ccc(C#N)cc4)cc2-c2ncnn2-3)C1` [Compound 259, (R)-4-(7-(3-(dimethylamino)pyrrolidin-1-yl)-9H-benzo[e]pyrrolo[1,2-a][1,2,4]triazolo[5,1-c][1,4]diazepin-12-yl)benzonitrile] as the molecule, how does the IC50 read?
**A.** < 50 nM

**Q.** How did the IC50 turn out when `C[C@@H]1CN(c2ccc3c(c2)Cn2cc(-c4ccc(F)cc4)cc2-c2nnnn2-3)C[C@H](C)N1` [Compound 395, 7-(cis-3,5-dimethylpiperazin-1-yl)-12-(4-fluorophenyl)-9H-benzo[e]pyrrolo[1,2-a]tetrazolo[5,1-c][1,4]diazepine] was run?
**A.** < 50 nM

**Q.** Which IC50 does the source give for `C[C@H](CO)NC[C@H]1CCN(c2ccc3c(c2)Cn2cc(-c4ccc(C#N)cc4)cc2-c2nccn2-3)C1` [Compound 136, 4-(7-((R)-3-((((R)-1-hydroxypropan-2-yl)amino)methyl)pyrrolidin-1-yl)-9H-benzo[e]imidazo[2,1-c]pyrrolo[1,2-a][1,4]diazepin-12-yl)benzonitrile] here?
**A.** < 50 nM

**Q.** For `CNCC1CCN(c2ccc3c(c2)Cn2cc(-c4ccc(C#N)cc4)cc2-c2nnnn2-3)C1` (stereo not drawn) [Compound 239, 4-(7-(3-((methylamino)methyl)pyrrolidin-1-yl)-9H-benzo[e]pyrrolo[1,2-a]tetrazolo[5,1-c] [1,4]diazepin-12-yl)benzonitrile], which IC50 is on record?
**A.** < 50 nM

**Q.** How did the IC50 turn out when `CN1CC2(CCN(c3ccc4c(c3)Cn3c(cc(-c5ccc(C#N)cc5)c3Cl)-c3nncn3-4)C2)C1` [Compound 168, 4-(11-chloro-7-(2-methyl-2,6-diazaspiro[3.4]octan-6-yl)-9H-benzo[e]pyrrolo[1,2-a][1,2,4]triazolo[3,4-c][1,4]diazepin-12-yl)benzonitrile] was run?
**A.** 100 to 200 nM

Reference: patent publication US10562909B2, “Fused quadracyclic compounds, compositions and uses thereof” (Tabomedex Biosciences, LLC, priority 2016, dated 2020)
